Data taken from patent USRE49735E1 (BRISTOL-MYERS SQUIBB COMPANY, priority 2010, dated 2023).
“And” between values parts separate entries of the source, which are not always exact repeats. Equal values may be shown once.

What follows are compounds tested against human mGluR5A (Homo sapiens, UniProt P41594) (assay: mGluR5 FLIPR Assay). Settings: positive modulator activity; HEK293 (ZF) cells with human mGluR5A and rat GLAST; Ca++ response to ~EC10 glutamate.
Type: cell-based
Experimental: HEK293 (ZF) cells stably transfected with human mGluR5A (pIRES neo) and the rat glutamate-aspartate transporter (GLAST; pIRES puro) are grown in a monolayer culture at 37° C. in 5% CO2 and fed with Minimum Essential Medium (MEM) supplemented with 10% dialysed fetal bovine serum. 24 hours prior to assay, cells are enzymatically dissociated from the culture flask (Trypsin, 0.25%), spun down (1000 rpm, 3 min), resuspended, and plated on Greiner black clear bottomed PDL-coated 384-well plates at a density of 30 thousand cells/well. […] Plates are incubated in dye at 37° C. in 5% CO2 for 60 minutes prior to delivery of test compounds in assay buffer. Test compounds are incubated with cells in the presence of dye for 10 minutes prior to being read on the FLIPR platform (Molecular Devices). A Ca^++ signal is induced in the assay plates via the delivery of an ˜EC10 concentration of the endogenous agonist 1-glutamate; images are acquired at 1 Hz for 100 seconds post-delivery of agonist stimulus. Positive modulator activity (i.e. the ability of test compounds to increase the Ca^++ response to a sub-maximal concentration of agonist) is normalized to a saturating concentration of a known mGluR5 PAM run in each assay plate. An EC50 concentration of test compounds is derived from 4-parameter logistic curve fits of transformed fluoresence data via proprietary software suite.

human mGluR5A, sequence (P41594 21-1180 isoform P41594-2): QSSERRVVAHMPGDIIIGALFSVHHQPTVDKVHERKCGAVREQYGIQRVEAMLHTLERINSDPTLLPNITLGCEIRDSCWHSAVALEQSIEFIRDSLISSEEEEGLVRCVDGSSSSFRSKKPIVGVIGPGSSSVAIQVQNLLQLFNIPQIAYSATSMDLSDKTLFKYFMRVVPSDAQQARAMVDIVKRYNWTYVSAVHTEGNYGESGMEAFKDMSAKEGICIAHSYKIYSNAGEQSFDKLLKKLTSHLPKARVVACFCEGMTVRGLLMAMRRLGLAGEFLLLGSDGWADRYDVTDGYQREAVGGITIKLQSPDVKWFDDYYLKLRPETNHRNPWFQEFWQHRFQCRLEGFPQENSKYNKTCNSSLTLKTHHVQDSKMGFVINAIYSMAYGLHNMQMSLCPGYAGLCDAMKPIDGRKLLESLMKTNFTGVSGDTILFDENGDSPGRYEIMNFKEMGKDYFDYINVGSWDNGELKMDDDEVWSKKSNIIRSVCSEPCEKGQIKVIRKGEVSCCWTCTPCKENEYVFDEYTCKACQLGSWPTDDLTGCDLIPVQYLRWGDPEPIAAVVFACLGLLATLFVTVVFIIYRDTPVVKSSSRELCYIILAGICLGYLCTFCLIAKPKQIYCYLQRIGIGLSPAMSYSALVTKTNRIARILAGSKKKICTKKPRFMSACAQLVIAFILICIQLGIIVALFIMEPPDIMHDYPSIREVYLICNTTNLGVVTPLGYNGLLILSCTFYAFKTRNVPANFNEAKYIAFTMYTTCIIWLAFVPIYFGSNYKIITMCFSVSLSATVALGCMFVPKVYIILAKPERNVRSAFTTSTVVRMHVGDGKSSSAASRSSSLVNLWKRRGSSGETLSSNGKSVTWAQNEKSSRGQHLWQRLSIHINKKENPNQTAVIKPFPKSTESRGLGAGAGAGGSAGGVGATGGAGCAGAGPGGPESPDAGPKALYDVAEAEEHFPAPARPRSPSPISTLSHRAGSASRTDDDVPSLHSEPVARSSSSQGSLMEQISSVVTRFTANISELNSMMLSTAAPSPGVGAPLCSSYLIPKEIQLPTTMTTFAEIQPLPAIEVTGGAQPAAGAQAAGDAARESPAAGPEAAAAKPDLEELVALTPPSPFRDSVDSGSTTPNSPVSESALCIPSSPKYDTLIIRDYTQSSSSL

Row | SMILES | EC50
1 | O=C1N[C@@H](c2cccc(C#Cc3ccccc3)c2)[C@H](c2ccccn2)O1 [Example 232] | > 1000 nM
2 | O=C1N[C@H](c2cccc(C#Cc3cccnc3)c2)[C@@H](c2cnccn2)O1 [Example 249] | > 1000 nM
3 | COc1cccc([C@H]2OC(=O)N[C@@H]2c2cccc(C#Cc3cncnc3)c2)c1 [Example 65, (4R,5R)-5-(3-Methoxyphenyl)-4-(3-(pyrimidin-5-ylethynyl)phenyl)oxazolidin-2-one] | 100 to 1000 nM and 139 nM
4 | C[C@]1(c2cncc(C#Cc3ccccc3)c2)NC(=O)O[C@@H]1c1ccc(F)cc1 [Example 219] | < 100 nM
5 | O=C1N[C@H](c2cncc(C#Cc3cnccn3)c2)[C@@H](c2ccc(F)c(F)c2F)O1 [Example 296] | < 100 nM
6 | C[C@]1(c2cncc(C#Cc3ccccc3)c2)NC(=O)O[C@@H]1c1cc(F)ccc1F (single isomer, unassigned) [Example 407] | < 100 nM
7 | COc1cccc([C@@H]2OC(=O)N[C@H]2c2cccc(C#Cc3cccc(C(F)(F)F)c3)c2)c1 [Example 130, (4S,5S)-5-(3-methoxyphenyl)-4-(3-((3-(trifluoromethyl)phenyl)ethynyl)phenyl)oxazolidin-2-one] | > 1000 nM
8 | COc1ccc(C#Cc2cncc([C@H]3NC(=O)O[C@@H]3c3cc(F)ccc3F)c2)cc1 [Example 382, (4R,5R)-5-(2,5-difluorophenyl)-4-(5-((4-methoxyphenyl)ethynyl)pyridin-3-yl)oxazolidin-2-one] | 100 to 1000 nM and 537 nM
9 | O=C1N[C@H](c2cccc(C#Cc3ccccc3)c2)[C@@H](c2nc(-c3cccnc3)no2)O1 [Example 164] | > 1000 nM
10 | O=C1N[C@H](c2cncc(C#Cc3ccccc3Cl)c2)[C@@H](c2cccc(F)c2F)O1 [Example 287] | 100 to 1000 nM
11 | COc1cccc([C@H]2OC(=O)N[C@@H]2c2cccc(C#Cc3cnccn3)c2)c1 [Example 63, (4R,5R)-5-(3-Methoxyphenyl)-4-(3-(pyrazin-2-ylethynyl)phenyl)oxazolidin-2-one] | < 100 nM
12 | O=C1N[C@H](c2cccc(C#Cc3ccccc3)c2)[C@@H](c2nc(-c3ccccn3)no2)O1 [Example 162] | > 1000 nM
13 | COc1cccc([C@H]2OC(=O)N[C@@H]2c2cccc(C#Cc3ncc[nH]3)c2)c1 [Example 62, (4R,5R)-4-(3-((1H-imidazol-2-yl)ethnyl)phenyl)-5-(3-methoxyphenyl)oxazolidin-2-one] | > 1000 nM
14 | O=C1N[C@@H](c2cncc(C#Cc3ccccc3)c2)[C@H](c2ccc(F)cc2)O1 (single isomer, unassigned) [Example 40] | > 1000 nM
15 | COc1cccc([C@H]2OC(=O)N[C@@H]2c2cccc(C#Cc3ccccc3C(F)(F)F)c2)c1 [Example 125, (4R,5R)-5-(3-methoxyphenyl)-4-(3-((2-(trifluoromethyl)phenyl)ethynyl)phenyl)oxazolidin-2-one] | > 30000 nM
16 | O=C1N[C@@H](c2cccc(C#Cc3ccccc3)c2)[C@@H](c2ccccc2)O1 [Example 97, (4S,5R)-5-phenyl-4-(3-(phenylethynyl)phenyl)oxazolidin-2-one] | > 1000 nM
17 | COc1cccc([C@H]2OC(=O)N[C@@H]2c2cccc(C#Cc3ccnc(F)c3)c2)c1 [Example 73, (4R,5R)-4-(3-((2-Fluoropyridin-4-yl)ethynyl)phenyl)-5-(3-methoxyphenyl)oxazolidin-2-one] | < 100 nM
18 | O=C1N[C@H](c2cncc(C#Cc3ccccc3)c2)[C@@H](c2ccc(F)cc2)O1 (single isomer, unassigned) [Example 41] | < 100 nM
19 | C[C@@]1(c2cccc(F)c2)OC(=O)N[C@@H]1c1cncc(C#Cc2ccccc2)c1 [Example 224] | > 1000 nM
20 | C[C@]1(c2cccc(F)c2)OC(=O)N[C@H]1c1cncc(C#Cc2ccccc2)c1 [Example 223] | 100 to 1000 nM
21 | COc1cccc([C@@H]2OC(=O)N[C@@H]2c2cccc(C#Cc3ccccc3)c2)c1 (single isomer, unassigned) [Example 3] | 100 to 1000 nM and 283 nM

Row | SMILES | EC50
22 | C[C@]1(c2ccc(F)cc2)OC(=O)N[C@@H]1c1cncc(C#Cc2cncc(F)c2)c1 [Example 208] | < 100 nM
23 | O=C1N[C@H](c2cncc(C#Cc3ccccc3Cl)c2)[C@@H](c2cccc(F)c2)O1 [Example 399, (4R,5R)-4-(5-((2-chlorophenyl)ethynyl)pyridin-3-yl)-5-(3-fluorophenyl)oxazolidin-2-one] | < 100 nM
24 | O=C1N[C@H](c2cc(C#Cc3cccnc3)cnc2F)[C@@H](c2ccc(C(F)(F)F)cc2)O1 [Example 145, (4R,5R)-4-(2-Fluoro-5-(pyridin-3-ylethynyl)pyridin-3-yl)-5-(4-(trifluoromethyl)phenyl)oxazolidin-2-one] | < 100 nM
25 | O=C1N[C@H](c2cccc(C#Cc3cncc(F)c3)c2)[C@@H](c2ccncn2)O1 [Example 244] | > 1000 nM
26 | O=C1N[C@H](c2cncc(C#Cc3ccccc3)c2)[C@H](c2ccncn2)O1 (single isomer, unassigned) [Example 320] | < 100 nM
27 | O=C1N[C@H](c2ccnc(C#Cc3ccccn3)c2)[C@@H](c2ccccc2)O1 [Example 22, (4R,5R)-5-Phenyl-4-(2-(pyridin-2-ylethynyl)pyridin-4-yl)oxazolidin-2-one] | > 1000 nM
28 | O=C1N[C@H](c2cncc(C#Cc3cccnc3)c2)[C@@H](c2ccc(F)cc2)O1 (single isomer, unassigned) [Example 43] | < 100 nM
29 | O=C1N[C@H](c2cccc(C#Cc3ccccc3)c2)[C@H](c2cnccn2)O1 [Example 247] | > 1000 nM
30 | C[C@]1(c2cccc(F)c2)OC(=O)N[C@@H]1c1cncc(C#Cc2ccccc2)c1 [Example 222] | < 100 nM
31 | O=C1N[C@@H](c2cccc(C#Cc3cccnc3)c2)[C@H](c2ccncc2)O1 [Example 236] | > 1000 nM
32 | O=C1N[C@H](c2cc(C#Cc3cncc(F)c3)ncc2F)[C@@H](c2ccc(F)cc2)O1 [Example 144, (4R,5R)-4-(5-Fluoro-2-((5-fluoropyridin-3-yl)ethynyl)pyridin-4-yl)-5-(4-fluorophenyl)oxazolidin-2-one] | < 100 nM
33 | O=C1N[C@H](c2cncc(C#Cc3ccccc3)c2)[C@@H](c2cccs2)O1 (single isomer, unassigned) [Example 346] | < 100 nM and 13.3 nM
34 | O=C1N[C@H](c2cccc(C#Cc3ccccc3)n2)[C@@H](c2cccc(F)c2)O1 [Example 217] | < 100 nM
35 | COc1cccc([C@H]2OC(=O)N[C@@H]2c2cccc(C#Cc3ccncc3)c2)c1 [Example 51] | < 100 nM
36 | C[C@]1(c2cc(F)ccc2F)OC(=O)N[C@@H]1c1cncc(C#Cc2ccccc2)c1 [Example 289] | < 100 nM
37 | O=C1N[C@H](c2cccc(C#Cc3ccccc3)c2)[C@@H](c2ccncn2)O1 [Example 239] | < 100 nM
38 | O=C1N[C@H](c2cncc(C#Cc3cccc(F)c3)c2)[C@@H](c2cccc(F)c2F)O1 [Example 285] | 100 to 1000 nM
39 | COc1cccc([C@H]2OC(=O)N[C@@H]2c2cccc(C#Cc3cscn3)c2)c1 [Example 68] | < 100 nM
40 | O=C1N[C@H](c2cccc(C#Cc3ccccc3)c2)[C@@H](c2ccccn2)O1 [Example 231] | < 100 nM
41 | O=C1N[C@H](c2cc(C#Cc3ccccc3)cnc2F)[C@@H](c2cccc(F)c2)O1 [Example 299, (4R,5R)-4-(2-Fluoro-5-(phenylethynyl)pyridin-3-yl)-5-(3-fluorophenyl)oxazolidin-2-one] | < 100 nM
42 | O=C1N[C@H](c2cccc(C#Cc3cccnc3)c2)[C@H](c2cnccn2)O1 [Example 251] | > 1000 nM
